# Where a name gives a salt, the structure may show the parent alone.
# How the values were obtained:
# Type in all cases: cell-based
# [1] = system: Propionibacterium acnes ATCC 11827; experiment: Minimum inhibitory concentration (MIC) assay, Propionibacterium acnes ATCC 11827; details: Cutibacterium acnes, ATCC11827; anaerobic culture 35+/-2°C, 48 hours; read with naked eyes
# Method: (§1) On the day of the experiment, the compound in the flask was dissolved in 100% DMSO until the concentration of mother liquor was 0.4 mg/mL. If the mother liquor was not used on the same day, it was stored at −80° C. for future use. The compound mother liquor and standard antibiotics were subjected to 2-fold gradient dilution with corresponding solvents on a 96-microwell plate (V-bottom) to obtain 100× working solutions (Well 1 to Well 7) in sequence. Among them, the concentrations of the compound were 400 μg/mL, 200 μg/mL, 100 μg/mL, 50 μg/mL, 25 μg/mL, 12.5 μg/mL, 6.25 μg/mL, and 3.125 μg/mL. 100% DMSO was used as growth control (Well 8). As such, the compound motherplate was obtained. Two days before the experiment, anaerobic bacteria (Propionibacterium acnes) stored in a cryogenic tube at −80° C. were scribed on an MBA (Brucella Agar+5% (v/v) defibrillated sheep blood+[…] Hemin+1 μg/mLVitamin K1) plate. The anaerobic bacteria were placed in a 35+/−2° C. anaerobic incubator for 42-48 hours of cultivation. On the day of the experiment, the plate was taken out, clones were picked from the plate and suspended in physiological saline. Then, the turbidity of the bacterial suspension (containing 1.0-2.0×10^8 CFU/mL) was adjusted to OD600=0.2 by a turbidity meter. Then, the adjusted bacterial suspension was diluted to an appropriate concentration with the assay culture medium: about 5×10^5 CFU/mL for aerobic bacteria, and about 1×10^6 CFU/mL for anaerobic bacteria. As such, the inoculating solution was obtained. […] Therefore, the final assay concentrations of the compound were 4 μg/mL, 2 μg/mL, 1 μg/mL, 0.5 μg/mL, 0.25 μg/mL, 0.125 μg/mL, 0.06 μg/mL and 0.03 μg/mL. The total volume of each well on the assay plate was 200 μL: containing 1% DMSO, about 5×10^5 CFU/mL of aerobic bacteria and about 1×10^6 CFU/mL of anaerobic bacteria. All assay plates for aerobic bacteria were aerobically cultured at 35+/−2° C. for 16 to 20 hours, and all assay plates for anaerobic bacteria were anaerobically cultured in an anaerobic incubator at 35+/−2° C. for 48 hours. Note: for anaerobic bacteria, both the preparation of bacterial solution in step 2 and the inoculation of bacterial solution in step 3 were operated in an anaerobic workstation.
# [2] = system: Propionibacterium acnes ATCC 6919; experiment: Minimum inhibitory concentration (MIC) assay, Propionibacterium acnes ATCC 6919; details: Cutibacterium acnes, ATCC6919; anaerobic culture 35+/-2°C, 48 hours; read with naked eyes
# Method: as §1
# [3] = system: Staphylococcus epidermidis ATCC 35983; experiment: Minimum inhibitory concentration (MIC) assay, Staphylococcus epidermidis ATCC 35983; details: ATCC35983, aerobic culture 35+/-2°C, 16 to 20 hours, read with naked eyes
# Method: (§2) On the day of the experiment, the compound in the flask was dissolved in 100% DMSO until the concentration of mother liquor was 0.4 mg/mL. If the mother liquor was not used on the same day, it was stored at −80° C. for future use.
# (§3) The compound mother liquor and standard antibiotics were subjected to 2-fold gradient dilution with corresponding solvents on a 96-microwell plate (V-bottom) to obtain 100× working solutions (Well 1 to Well 7) in sequence. Among them, the concentrations of the compound were 400 μg/mL, 200 μg/mL, 100 μg/mL, 50 μg/mL, 25 μg/mL, 12.5 μg/mL, 6.25 μg/mL, and 3.125 μg/mL. 100% DMSO was used as growth control (Well 8). As such, the compound motherplate was obtained.
# (§4) One day before the experiment, aerobic bacteria (Staphylococcus epidermidis) stored in a cryogenic tube at −80° C. were scribed on an MHA (Cation-adjusted Mueller-Hinton agar) plate. The aerobic bacteria were placed in a 35+/−2° C. incubator for 18-24 hours of aerobic cultivation.
# (§5) On the day of the experiment, the plate was taken out, clones were picked from the plate and suspended in physiological saline. Then, the turbidity of the bacterial suspension (containing 1.0-2.0×10^8 CFU/mL) was adjusted to OD600=0.2 by a turbidity meter. Then, the adjusted bacterial suspension was diluted to an appropriate concentration with the assay culture medium: about 5×10^5 CFU/mL for aerobic bacteria, and about 1×10^6 CFU/mL for anaerobic bacteria. As such, the inoculating solution was obtained.
# (§6) 2 μl of 2-fold series dilution of 100× high-concentration working solution was transferred from a compound mother plate (prepared in step 1) to a round-bottom 96-well plate, and then 198 μL of bacterial inoculating solution (prepared in step 2) was added to each well to obtain an MIC assay plate. Therefore, the final assay concentrations of the compound were 4 μg/mL, 2 μg/mL, 1 μg/mL, 0.5 μg/mL, 0.25 μg/mL, 0.125 μg/mL, 0.06 μg/mL and 0.03 μg/mL. The total volume of each well on the assay plate was 200 μL: containing 1% DMSO, about 5×10^5 CFU/mL of aerobic bacteria and about 1×10^6 CFU/mL of anaerobic bacteria.
# (§7) All assay plates for aerobic bacteria were aerobically cultured at 35+/−2° C. for 16 to 20 hours, and all assay plates for anaerobic bacteria were anaerobically cultured in an anaerobic incubator at 35+/−2° C. for 48 hours.
# [4] = system: Staphylococcus epidermidis ATCC 35984; experiment: Minimum inhibitory concentration (MIC) assay, Staphylococcus epidermidis ATCC 35984; details: ATCC35984, aerobic culture 35+/-2°C, 16 to 20 hours, read with naked eyes
# Method: as §2, §3, §4, §5, §6, §7
# [5] = system: Staphylococcus epidermidis ATCC 12228; experiment: Minimum inhibitory concentration (MIC) assay, Staphylococcus epidermidis ATCC 12228; details: ATCC12228, aerobic culture 35+/-2°C, 16 to 20 hours, read with naked eyes
# Method: as §2, §3, §4, §5, §6, §7
Structure (SMILES),MIC [1] [µg/mL],MIC [2] [µg/mL],MIC [3] [µg/mL],MIC [4] [µg/mL],MIC [5] [µg/mL]
CNc1cc2c(cn1)-c1ccc3c(=O)c(C(=O)O)cn(C4CC4)c3c1C=CC2 [Compound 4],0.5,0.5,0.125,0.06,0.125
O=C(O)c1cn(C2CC2)c2c3c(ccc2c1=O)-c1c[nH]c(=O)cc1COC3 [Compound 21],1,0.5,1,2,1
CC1(C)OC[C@H](CNc2cc3c(cn2)-c2ccc4c(=O)c(C(=O)O)cn(C5CC5)c4c2COC3)O1 [Compound 26],0.5,0.5,0.25,0.25,0.25
N=C(N)NOCCOCCNc1cc2c(cn1)-c1ccc3c(=O)c(C(=O)O)cn(C4CC4)c3c1COC2 [Hydrochloride of Compound 29],1,2,2,1,2
O=C(O)c1cn(C2CC2)c2c3c(ccc2c1=O)-c1cnc(NCc2ccccc2)cc1COC3 [Trifluoroacetate of Compound 15],0.5,0.125,0.06,0.06,0.06
O=C(O)c1cn(C2CC2)c2c3c(ccc2c1=O)-c1cnc(NCC2CCC2)cc1COC3 [Trifluoroacetate of Compound 16],0.5,0.5,0.06,0.06,0.06
NCCNc1cc2c(cn1)-c1ccc3c(=O)c(C(=O)O)cn(C4CC4)c3c1COC2 [Trifluoroacetate of Compound 19],2,2,1,1,2
CNc1cc2c(cn1)-c1ccc3c(=O)c(C(=O)O)cn(C4CC4)c3c1CCC2 [Trifluoroacetate of Compound 20],2,1,0.125,0.125,0.125
O=C(O)c1cn(C2CC2)c2c3c(ccc2c1=O)-c1cnc(NC[C@H](O)CO)cc1COC3 [Trifluoroacetate of Compound 22],0.25,0.25,0.25,0.12,0.25
CN(CC(F)F)c1cc2c(cn1)-c1ccc3c(=O)c(C(=O)O)cn(C4CC4)c3c1COC2 [Trifluoroacetate of Compound 23],0.25,0.12,0.12,≤ 0.06,0.12
N=C(N)Nc1cc2c(cn1)-c1ccc3c(=O)c(C(=O)O)cn(C4CC4)c3c1COC2 [Trifluoroacetate of Compound 27],1,1,0.5,0.5,0.5

# More lines, in order of falling MIC [1], values ahead:
MIC [1] [µg/mL],MIC [2] [µg/mL],MIC [3] [µg/mL],MIC [4] [µg/mL],MIC [5] [µg/mL],Structure (SMILES)
0.25,0.25,0.5,0.25,0.25,CN(C[C@H]1COC(C)(C)O1)c1cc2c(cn1)-c1ccc3c(=O)c(C(=O)O)cn(C4CC4)c3c1COC2 [Compound 25]
0.25,0.25,0.25,0.5,0.5,CNc1ccc2c(n1)COCc1c-2ccc2c(=O)c(C(=O)O)cn(C3CC3)c12 [Hydrochloride of Compound 1]
0.25,0.125,0.06,0.06,0.06,CNc1cc2c(cn1)-c1ccc3c(=O)c(C(=O)O)cn(C4CC4)c3c1COC2 [Trifluoroacetate of Compound 2]
0.25,0.125,0.03,0.03,0.06,Nc1cc2c(cn1)-c1ccc3c(=O)c(C(=O)O)cn(C4CC4)c3c1COC2 [Trifluoroacetate of Compound 7]
0.25,0.25,0.06,0.125,0.03,Nc1ncc2c(n1)COCc1c-2ccc2c(=O)c(C(=O)O)cn(C3CC3)c12 [Trifluoroacetate of Compound 9]
0.25,0.5,0.06,0.125,0.03,O=C(O)c1cn(C2CC2)c2c3c(ccc2c1=O)-c1cnccc1COC3 [Trifluoroacetate of Compound 11]
0.25,0.125,0.06,0.06,0.06,CCCNc1cc2c(cn1)-c1ccc3c(=O)c(C(=O)O)cn(C4CC4)c3c1COC2 [Trifluoroacetate of Compound 13]
0.125,0.125,0.06,≤ 0.03,0.06,Cc1cc2c(cn1)-c1ccc3c(=O)c(C(=O)O)cn(C4CC4)c3c1COC2 [Sodium salt of Compound 10]
0.125,0.06,0.06,0.06,0.06,O=C(O)c1cn(C2CC2)c2c3c(ccc2c1=O)-c1cnc(NCCO)cc1COC3 [Trifluoroacetate of Compound 12]
0.125,0.06,0.06,0.03,0.06,CCNc1cc2c(cn1)-c1ccc3c(=O)c(C(=O)O)cn(C4CC4)c3c1COC2 [Trifluoroacetate of Compound 14]
0.06,0.06,0.06,0.06,0.06,O=C(O)c1cn(C2CC2)c2c3c(ccc2c1=O)-c1cc2nc[nH]c2cc1COC3 [Compound 3]
0.06,0.06,0.06,0.06,0.06,COc1cc2c(cn1)-c1ccc3c(=O)c(C(=O)O)cn(C4CC4)c3c1COC2 [Compound 5]

# Source: US20250042912A1, “NOVEL NON-FLUORINATED QUINOLONE COMPOUND AND USE THEREOF” (priority 2021, published 2025)
